The results in this text go back to article PMC9505023, “Isatin Bis-Indole and Bis-Imidazothiazole Hybrids: Synthesis and Antimicrobial Activity” (Molecules, 2022).

Molecules are shown by their SMILES. Several values for one entry are separate records, joined by “and”; a condition that tells them apart may be missing. Equal values may be shown once.

The subject of series [1] is Staphylococcus aureus ATCC 25923. The series is described as follows: Microdilution broth susceptibility test, S. aureus reference strain. The conditions noted are these: for activity at 100 µM: read-out: S. aureus microbial growth. The procedure: The in vitro antimicrobial activity of the isatin derivatives was evaluated by a microdilution broth method in accordance with the guidelines provided by a number of international committees, such as The Clinical Laboratory Standards Institute (CLSI) in the U.S. or The European Committee on Antimicrobial Susceptibility Testing (EUCAST) in Europe reference bacterial strains, including Staphylococcus aureus (ATCC 25923) and Escherichia coli (ATCC 25922) and Candida albicans (ATCC 10231), were purchased from the American Type Culture Collection (ATCC); they were routinely cultured in 5% sheep blood agar plate and in Sabauraud dextrose agar, respectively, at 37 °C. Clinical isolates, identified by MALDI-TOF MS (Bruker Daltonik, GmbH, Bremen, Germany), were profiled for their antibiotic susceptibility by using the Vitek2 semiautomated system (bioMerieux, Craponne, France) and according to EUCAST guidelines [EUCAST: The European Committee on Antimicrobial Susceptibility Testing. Breakpoint tables for interpretation of MICs and zone diameters. Version 12, 2022, http://www.eucast.org (accessed on 1 January 2022)].
Microbial inocula were prepared at 0.5 McFarland in PBS and, subsequently, bacterial suspensions were diluted 1:200 in Mueller–Hinton broth (Sigma-Aldrich, St. Louis, MO, USA), while fungal inoculum was diluted 1:20 in RPMI-1640 medium (Gibco®, ThermoFisher Scientific Inc., Waltham, MA, USA), containing glucose 2%, 0.3% levo-glutamine buffered to pH 7.0 with 0.165 M 3-(N-morpholino)propanesulfonic acid (MOPS). A total of 100 µL of these microbial suspensions were introduced in a 96-well microplate and treated with 100 µL of the compound at 100 µM or with two-fold serial dilutions of the compound in the range of 400 µM–3.12 µM. All compounds were previously dissolved in 100% DMSO at a concentration of 20 mM. Experiments included controls used to measure the microbial growth in regular medium (positive control) and to check the background turbidity of the reagents and the sterility of the procedures (negative controls). In addition, microbial growths were assessed in the presence of the DMSO solvent in the range of 0.015–2%. The inoculated plate was incubated at 37 °C for 24 h, and subsequently, the optical density at 630 nm was measured by the Multiskan Ascent microplate reader (Thermo Fisher Scientific Inc., Waltham, MA, USA). […] All the experiments were performed on triplicate in at least two independent assays.

For series [2], the system named is Escherichia coli ATCC 25922. The series is described as follows: Microdilution broth susceptibility test, E. coli reference strain. It counts as cell-based. As to conditions: ATCC25922, 24 h, growth as percentage relative to positive growth control, mean ± SD, read-out: E. coli microbial growth. The text has this: (§1) Breakpoint tables for interpretation of MICs and zone diameters.
On the technique in general: In broth dilution the organism is exposed to a series of concentrations in liquid medium.

Series [3] relates to Candida albicans ATCC 10231. Description: Microdilution broth susceptibility test, C. albicans reference strain. The conditions noted are these: for activity at 100 µM: Candida albicans, ATCC10231, 24 h, growth as percentage relative to positive growth control, mean ± SD, read-out: C. albicans microbial growth. In kind it is cell-based.
Excerpt: as §1

For another series, the system named is Vero cells (ATCC CCL-81). Description: Cytotoxicity test, WST8-based CCK-8 cell viability. Also noted: species or system African green monkey; Vero cell proliferation: unit: %. As to conditions: 100 µM; for Vero cell proliferation: 48 h, cell viability as percentage relative to untreated controls, mean ± SD. The procedure: African green monkey kidney cells (Vero ATCC CCL-81) obtained from ATCC were cultured in Eagle’s minimal essential medium (MEM) (Sigma-Aldrich, St. Louis, MO, USA), supplemented with 10% fetal bovine serum (FBS) (Carlo Erba Reagents, Milan, Italy), 100 U/mL penicillin, and 100 µg/mL streptomycin at 37 °C with 5% CO2. For the experiments, the cells were seeded into 96-well plates at 10^4 cells/well and incubated at 37 °C for 24 h. Following washes with PBS, the cell monolayer was incubated with 100 µL of medium containing 100 µM of the derivatives. Both untreated cells and cells incubated with the solvent were included in each experiment as controls. The cell viability was assessed by a WST8-based assay according to the manufacturer’s instructions (CCK-8, Cell Counting Kit-8, Dojindo Molecular Technologies, Rockville, MD, USA). After 48 h of incubation, the culture medium was removed from each well, the monolayer was washed with PBS, and 100 µL of fresh medium containing 10 µL of CCK-8 solution were added. Following 2 h at 37 °C, the absorbance was measured at 450/630 nm; data were calculated as the percentage of the cell viability relative to the untreated controls.

Series [4] deals with S. aureus clinical isolates (MSSA and MRSA). The series is described as follows: Microdilution broth susceptibility test, S. aureus clinical isolates. It counts as cell-based. The conditions noted are these: Staphylococcus aureus, 10 clinical isolates, read-out: IC50 against S. aureus clinical isolates (range over isolates).
Excerpt: as §1

The mark [5] stands for this setting: Staphylococcus aureus, ATCC25923, 24 h.

As to `Cc1cc(C)c2c(c1)NC(=O)C2(C1CNc2ccccc21)C1CNc2ccccc21` (stereo not shown) [4e, 4′,6′-dimethyl-[3,3′:3′,3″-terindolin]-2′-one], the activity at 100 µM in series [1] (setting [5]) was 71.2 ± 8.7%; in series [2], 103 ± 1.4%; in series [3], 68.8 ± 2.7%. The “Cytotoxicity on Vero cells in words” value with Vero cells (ATCC CCL-81) is reported as “affect Vero cells proliferation”. In the series with Vero cells (ATCC CCL-81), this compound registered a Vero cell proliferation of 8.5 ± 0.3.
Regarding `O=C1Nc2c(Cl)ccc(Cl)c2C1(C1CNc2ccccc21)C1CNc2ccccc21` (stereo not shown) [4f, 4′,7′-dichloro-[3,3′:3′,3″-terindolin]-2′-one], the activity at 100 µM was 75.8 ± 1.8% in series [1] (setting [5]), 96.9 ± 1.7% in series [2] and 107 ± 4.2% in series [3]. Also, the “Cytotoxicity on Vero cells in words” value in the series with Vero cells (ATCC CCL-81) was “affect Vero cells proliferation”. Also, in the series with Vero cells (ATCC CCL-81), the Vero cell proliferation worked out at 9.8 ± 0.5.
`COc1ccc(CN2C(=O)C(C3CNc4ccccc43)(C3CNc4ccccc43)c3cc(OC)ccc32)cc1` (stereo not shown) [4g, 5′-methoxy-1′-(4-methoxybenzyl)-[3,3′:3′,3″-terindolin]-2′-one]: the activity at 100 µM was determined as 86.2 ± 5.7% in series [1] (setting [5]), 100.3 ± 0.7% in series [2] and 50.6 ± 6.6% in series [3]. This compound also registered a Vero cell proliferation in the series on Vero cells (ATCC CCL-81) of 107.9 ± 8.9.
As for `O=C1Nc2cccc(I)c2C1(C1CNc2ccccc21)C1CNc2ccccc21` (stereo not shown) [4h, 4′-iodo-[3,3′:3′,3″-terindolin]-2′-one], the activity at 100 µM was 72.8 ± 6.1% in series [1] (setting [5]), 82 ± 1.5% in series [2] and 23.2 ± 2.1% in series [3]. Moreover, the “Antifungal activity against C. albicans in words” value in series [3] (100 µM (48.93 µg/mL)) is recorded as “significantly reduced the growth of C. albicans”. Moreover, the “Cytotoxicity on Vero cells in words” value in the series on Vero cells (ATCC CCL-81) was “affect Vero cells proliferation”. For the same compound, the Vero cell proliferation in the series with Vero cells (ATCC CCL-81) stood at 10.6 ± 0.3.
As to `O=C1Nc2cc(OC(F)(F)F)ccc2C1(C1CNc2ccccc21)C1CNc2ccccc21` (stereo not shown) [4l, 6′-(trifluoromethoxy)-[3,3′:3′,3″-terindolin]-2′-one], the activity at 100 µM in series [1] (setting [5]) stood at 72 ± 2.2%; in series [2], 103 ± 1.6%; in series [3], 93.3 ± 2.1%. This compound also displayed a Vero cell proliferation in the series on Vero cells (ATCC CCL-81) of 8.9 ±0.4.
As for `COc1ccc2c(c1)C(C1(C3CNc4ccc(OC)cc43)C(=O)Nc3cc(OC)c(OC)c(OC)c31)CN2` (stereo not shown) [5d, 4′,5,5′,5″,6′-pentamethoxy-[3,3′:3′,3″-terindolin]-2′-one], the activity at 100 µM was determined as 89.1 ± 7% in series [1] (setting [5]), 117 ± 1.1% in series [2] and 120 ± 2% in series [3]. In the series on Vero cells (ATCC CCL-81), this compound showed a Vero cell proliferation of 54.3 ± 0.9.
The corresponding values for `COc1ccc2c(c1)C(C1(C3CNc4ccc(OC)cc43)C(=O)N(Cc3ccc(Cl)cc3)c3ccccc31)CN2` (stereo not shown) [5m, 1′-(4-chlorobenzyl)-5,5″-dimethoxy-[3,3′:3′,3″-terindolin]-2′-one] are 95.1 ± 3.9%, 113 ± 0.6%, 88.2 ± 5.2% and 87.0 ± 5.7.
The like results for `O=C1Nc2ccccc2C1(c1c(Cl)nc2sccn12)c1c(Cl)nc2sccn12` [6c, 3,3-bis(6-chloroimidazo[2,1-b]thiazol-5-yl)indolin-2-one] were, in that order, 95.4 ± 2.4%, 117 ± 3.1%, 126 ± 2.1% and 92.8 ± 4.8.
The corresponding values for `COc1ccc(CN2C(=O)C(c3c(Cl)nc4sccn34)(c3c(Cl)nc4sccn34)c3cc(OC)ccc32)cc1` [6g, 3,3-bis(6-chloroimidazo[2,1-b]thiazol-5-yl)-5-methoxy-1-(4-methoxybenzyl)indolin-2-one] are 67.4 ± 8.4%, 73.6 ± 9.1%, 92.4 ± 3.6% and 84.3 ± 0.9.
As a reminder, the IC50 is the concentration that gives 50% inhibition. Consider `COc1ccc2c(c1)C(c1c(Cl)nc3sccn13)(c1c(Cl)nc3sccn13)C(=O)N2` [6k, 3,3-bis(6-chloroimidazo[2,1-b]thiazol-5-yl)-5-methoxyindolin-2-one], for which, in series [1] (100 µM), the “Activity against S. aureus in words” value is given as “highly active”. In addition, the “Efficacy at the highest tested concentration in words” value in series [1] (400 µM) is “completely inhibit bacterial growth”. For the same compound, in series [1] (S. aureus growth compared with Vero cytotoxicity at 100 µM), the “Selectivity of antibacterial activity versus cytotoxicity in words” value is reported as “selective inhibitory property against the Gram-positive strain”. For the same compound, the IC50 in series [1] (Staphylococcus aureus, ATCC25923, 24 h, read-out: IC50 against S. aureus) is 39.1 µg/mL and 80 µM; in series [4] it was 73 to 85.3 µM. The activity at 100 µM is 43.4 ± 5.6% in series [1] (setting [5]), 103 ± 2.4% in series [2] and 104 ± 1.9% in series [3]. In the series with Vero cells (ATCC CCL-81), this compound registered a Vero cell proliferation of 70.9 ± 5.6.
